Measured values taken from patent US20240115221A1, “POSITRON IMAGING TOMOGRAPHY IMAGING AGENT C[…] METHOD FOR BACTERIAL INFECTION” (The Research Foundation for the State University of New York, priority 2016, published 2024).

Key:
E. coli [1] = experiment: MIC determination (antibacterial activity); type: cell-based; details: Escherichia coli
Description: (§1) Expressed and purified dihydropteroate synthase (DHPS) from S. aureus (saDHPS) was cloned. DHPS is the enzyme that installs PABA (p-aminobenzoic acid) in the folate biosynthesis pathway (Scheme 2). […] Using a coupled assay, it was determined that the kinetic parameters for saDHPS with PABA, PAS and F-PABA. […] Since PAS is an antibacterial compound whose mechanism of action may be related for the ability of this compound to compete with PABA for DHPS, we determined the antibacterial activity and cytotoxicity of F-PABA for several bacterial species as well as Vero cells. In each case no growth inhibition was observed up to 200 μg/ml.

M. tuberculosis = experiment: MIC determination (antibacterial activity); type: cell-based; details: Mycobacterium tuberculosis
Description: as §1

S. aureus [2] = experiment: MIC determination (antibacterial activity); type: cell-based; details: Staphylococcus aureus
Description: as §1

Vero cells = experiment: Cytotoxicity for Vero cells; type: cell-based
Description: as §1

[3] = target: T1, dihydropteroate synthase (DHPS) from S. aureus (saDHPS) (Staphylococcus aureus, UniProt O05701); experiment: Coupled assay, kinetic parameters for saDHPS; type: biochemical
T1 construct: made in house
T1 sequence (O05701 whole entry): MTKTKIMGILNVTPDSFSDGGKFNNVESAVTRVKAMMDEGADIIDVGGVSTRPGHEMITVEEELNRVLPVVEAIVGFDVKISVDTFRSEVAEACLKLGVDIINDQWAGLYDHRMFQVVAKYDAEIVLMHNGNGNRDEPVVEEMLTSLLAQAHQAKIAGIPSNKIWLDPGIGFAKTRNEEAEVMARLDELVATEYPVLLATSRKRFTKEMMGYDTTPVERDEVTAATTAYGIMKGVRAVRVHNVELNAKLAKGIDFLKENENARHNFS
Description: as §1

[4] = system: several bacterial species; experiment: Antibacterial activity for several bacterial species; type: cell-based
Newman S. aureus [5] = experiment: Rat triceps S. aureus infection model, PET imaging and ex vivo counting; type: in vivo
Description: Initial in vivo studies focused on soft tissue models of MSSA infection. This included a mouse thigh infection model and rat triceps model. […] Fifty μL of 10^9 CFU of Newman S. aureus BHI culture was injected into the right triceps of a rat. After 10-15 hr the rats were imaged following iv administration of 0.8-1.2 mCi of [^18F]F-PABA. The images clearly show the accumulation of radioactivity in the right but not the left triceps. In addition to monitoring the time course of [^18F]F-PABA biodistribution, we also quantified tracer levels by postmortem ex vivo counting. […] At 60 min tracer levels were 5.4× higher in the infected right triceps compared to the uninfected left triceps. This compares favorably with other tracers.

E. coli [6] = experiment: Uptake of [18F]F-PABA by bacteria; type: cell-based
Excerpt: (§2) The ability of different bacterial species to take up [^18F] F-PABA was studied. The radiotracer accumulated in both methicillin sensitive S. aureus (MSSA, Newman) and methicillin-resistant S. aureus (MRSA), as well as the Gram negative bacteria E. coli and Klebsiela pneumoniae.

[7] = system: methicillin-resistant S. aureus (MRSA); experiment: Uptake of [18F]F-PABA by bacteria; type: cell-based
Excerpt: as §2

Klebsiela pneumoniae = experiment: Uptake of [18F]F-PABA by bacteria; type: cell-based
Excerpt: as §2

S. aureus [8] = experiment: Rat triceps infection, tracer accumulation and bacterial load under vancomycin treatment
Excerpt: A key goal is to identify a tracer that can be used to quantify bacterial load and monitor the change in bacterial load during and following antibiotic treatment.

Newman S. aureus [9] = experiment: Rat triceps infection versus sterile inflammation (heat-killed S. aureus); type: in vivo; details: right triceps infected, left triceps heat-killed S. aureus
Description: One of the main limitations of using FDG to image infection is that FDG accumulates in the mammalian cells involved in the inflammatory response to infection. It was analyzed how inflammation affected the biodistribution of [^18F]F-PABA by generating an inflammatory response using 50 μL of […] of Newman S. aureus heat-killed bacteria.
accumulation of [^18F]F-PABA at the site of infection is likely not due to uptake by cells involved in the inflammatory response.

Enterococcus faecalis = experiment: Uptake of [18F]F-PABA by bacteria; type: cell-based
Excerpt: (§3) In contrast, [^18F]F-PABA was not taken up by Enterococcus faecalis. E. faecalis has a folate salvage pathway and can take up folate from the environment. Thus, folic acid biosynthesis is dispensable in this organism, which also explains why sulfonamides are not used to treat infection by E. faecalis.

[10] = system: methicillin sensitive S. aureus (MSSA, Newman); experiment: Uptake of [18F]F-PABA by bacteria; type: cell-based
Excerpt: as §2, §3

[11] = after a further 3 doses of vancomycin

Nc1ccc(C(=O)O)c(F)c1 [2-F-PABA, 2-fluoro-4-aminobenzoic acid]
MIC (E. coli [1]): > 200 µg/mL | MIC (M. tuberculosis): > 100 µg/mL | MIC (S. aureus [2]): > 200 µg/mL | concentration up to which no growth inhibition was observed (cytotoxicity) (Vero cells): > 200 µg/mL | substrate for saDHPS [3]: alternative substrate for saDHPS | MIC ([4]; discussion, species not named): > 100 µg/mL | concentration up to which no growth inhibition was observed ([4]; several bacterial species): > 200 µg/mL | antibacterial activity ([4]; summary of Table 1): no antibacterial activity

Nc1ccc(C(=O)O)c([18F])c1 [[^18F]F-PABA, 4-Amino-2-[^18f]-fluorobenzoic acid]
tracer levels in infected right triceps compared to uninfected left triceps (Newman S. aureus [5]; iv 0.8-1.2 mCi, at 60 min): 5.4 × | biodistribution of tracer (Newman S. aureus [5]; iv, postmortem ex vivo counting): distributed to all tissues and organs with the exception of the brain | uptake of radiotracer (E. coli [6]): accumulated | uptake of radiotracer [7]: accumulated | uptake of radiotracer (Klebsiela pneumoniae): accumulated | tracer accumulation in infected triceps (S. aureus [8]; after 3 doses of vancomycin): 0.015±0.005 %1D/cc | decrease in tracer levels (S. aureus [8]; after 3 doses of vancomycin versus before treatment): ~3 fold | tracer accumulation in infected triceps (S. aureus [8]; [11]): 0.013±0.002 % 10/cc | tracer accumulation in infected triceps (S. aureus [8]; before treatment): 0.051±0.008 %1D/cc | tracer levels in the uninfected triceps (S. aureus [8]; uninfected triceps): 0.007±0.001 %1D/cc | radiotracer levels at site of infection compared to site of sterile inflammation (Newman S. aureus [9]): 10 fold | uptake of radiotracer (Enterococcus faecalis): not taken up | uptake of radiotracer ([10]; heat-killed MSSA cells): unable to take up | uptake of radiotracer ([10]; viable MSSA (Newman)): accumulated

CN[C@H](CC(C)C)C(=O)N[C@H]1C(=O)N[C@@H](CC(N)=O)C(=O)N[C@H]2C(=O)N[C@H]3C(=O)N[C@H](C(=O)N[C@H](C(=O)O)c4cc(O)cc(O)c4-c4cc3ccc4O)[C@H](O)c3ccc(c(Cl)c3)Oc3cc2cc(c3O[C@@H]2O[C@H](CO)[C@@H](O)[C@H](O)[C@H]2O[C@H]2C[C@](C)(N)[C@H](O)[C@H](C)O2)Oc2ccc(cc2Cl)[C@H]1O [vancomycin, reference compound]
bacterial burden of infected triceps (S. aureus [8]; after 3 doses of vancomycin): 8.1±0.3 Log10 CFU | decrease in bacterial burden (S. aureus [8]; after 3 doses of vancomycin): ~3 logs | bacterial burden of infected triceps (S. aureus [8]; [11]): 7.0±0.9 Log10 CFU | additional decrease in bacterial burden (S. aureus [8]; further 3 doses of vancomycin): 1 log
